# Reference: BindingDB's records for PubMed 11408556 (Astrazeneca Pharmaceuticals, 2001)
# Several values for one entry are separate records, joined by “and”; a condition that tells them apart may be missing. Equal entries are not always repeated.
# Biological target: Substance-P receptor (Homo sapiens, UniProt P25103)
# Sequence (P25103 whole entry): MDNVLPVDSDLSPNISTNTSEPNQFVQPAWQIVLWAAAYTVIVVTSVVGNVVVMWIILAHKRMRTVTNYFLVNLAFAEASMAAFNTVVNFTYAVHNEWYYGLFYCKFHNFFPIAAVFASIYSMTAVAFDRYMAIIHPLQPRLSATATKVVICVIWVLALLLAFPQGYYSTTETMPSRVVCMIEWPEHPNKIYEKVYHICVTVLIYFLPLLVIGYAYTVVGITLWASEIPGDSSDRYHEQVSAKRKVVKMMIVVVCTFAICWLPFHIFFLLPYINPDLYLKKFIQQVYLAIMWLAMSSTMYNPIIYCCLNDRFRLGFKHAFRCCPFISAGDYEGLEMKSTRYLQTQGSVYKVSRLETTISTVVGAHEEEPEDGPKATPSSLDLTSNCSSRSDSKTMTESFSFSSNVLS
structure (smiles),measurement,value
CN(C[C@@H](CCN1CCC(c2ccccc2[S+](C)[O-])CC1)c1ccc(Cl)c(Cl)c1)C(=O)c1cc(C#N)cc2ccccc12 (stereo partly specified),Ki,0.61 nM and 0.12 nM
